Experimental data: patent US20250241890A1, “1,4-DIUREAS AND 1,4-DITHIOUREAS AND USES THEREOF” (Purdue Research Foundation, priority 2024, published 2025)

Legend:
α-synuclein (α-syn) [1] = molecular target: T1, α-synuclein (α-syn) (Homo sapiens, UniProt P37840); assay: PICUP assay of α-syn oligomer formation; type: biochemical; conditions: α-syn 60 μM, compound 50 μM (~molar ratio 1:1)
T1 construct: purchased rPeptide (Watkinsville, GA)
Description: Chemical and peptide source. Dimethylsulfoxide (DMSO) and thioflavin-T (ThT) were purchased from Alfa Aesar (Ward Hill, MA). Recombinant α-synuclein (α-syn) was procured from rPeptide (WatKinsville, GA). The recombinant p-tau isoform 1N4R was prepared as published previously (Fortin et al. 2021, Sui et al. 2015, Liu et al. 2020). Concerning the preparation of tau 0N4R, a bacterial expression plasmid consisting of the vector pET30a carrying a cDNA encoding the human Tau 0N4R isoform was a kind gift of Dr. Benjamin Wolozin (Boston University). E. coli stock (Rosetta BL21 E. coli (CamR) containing pET30a [0N4R tau wt] (KanR)) was grown in LB medium supplemented with kanamycin (50 μg/mL) and chloramphenicol (50 μg/mL). Protein over-expression was induced by the addition of 1 mM IPTG for ˜18 hours at 37° C., and cells were pelleted by centrifugation at 6,000 g for 15 minutes at 4° C. The cells were resuspended in lysis buffer (10 mM Hepes, pH 7.4, 50 mM NaCl, 1 mM MgCl2, 1 mM PMSF, 1× PIC, and 0.5 mM DTT) and lysed by sonication at 30 seconds “On” and 1 minute “Off” at ˜30-45% power for ˜3-5 minutes. Lysate was centrifuged at 10,000 rpm for 10 minutes at 4° C., and supernatant was transferred with 7.8 ml (total) of 3M NaCl. The lysate was incubated for 10 minutes in 80° C. water bath, then cooled for 10 minutes in an ice bath. The lysate was centrifuged at 10,000 rpm at 4° C. for 10 minutes, and the supernatant was transferred to a new tube. The supernatant was dialyzed overnight against cation exchange buffer (50 mM MES, […], 1 mM DTT, pH 6.0). The dialysate was loaded onto a HiPrep SP HP column, and proteins were eluted with a linear gradient ranging from 50 mM to 1 M NaCl. General Characterizations. ^1H and ^13C {1H} NMR spectra were recorded using a 500 MHz Bruker instrument working at a frequency of 500 MHz for ^1H and at 126 MHz for ^13C. Chemical shifts are reported in ppm using residual solvent resonances as internal reference (δ 2.50 and δ 39.51 for ^1H and ^13C in DMSO-d6, respectively). ^1H NMR data are reported as follows. b=broad, s=singlet, d=doublet, t=triplet, q=quartet, and m=multiplet. Coupling constants are given in hertz. The purity of all compounds and synthetic intermediates was judged to be 95% or better based on ^1H NMR. IR measurements were performed in a Nicolet FTIR as thin films in the Purdue Drug Discovery facility. High-resolution mass spectrometry analyses were conducted at the MSU Mass Spectrometry facility. Thioflavin fluorescence assays. Thioflavin fluorescence assays were used to monitor fibril formation of commercial recombinant α-syn at a final concentration of 2 μM and treated with control DMSO and different compounds. The recombinant α-syn obtained from rPeptide has been validated with proper quality control to confirm the monomeric state of the protein. Kinetics of fibril formation have been performed using ThT as published previously.^6, 12, 13, 24 The fluorescence emission experiments were performed with the excitation and emission wavelengths set at 440 and 485 nm, respectively, with a Synergy HT multi-mode microplate reader (BioTek, Winooski, VT). Samples were measured in three replicates. Experiments were repeated three times using different α-syn stock solutions. For each time point, arbitrary units of fluorescence were calculated from the mean values normalized against the maximum value. The percentage of fluorescence intensity at the plateau phase in Table 1 was expressed as mean #SEM. Concerning the dose response curve depicted in FIG. 2, the data were plotted using GraphPad Prism. Photo-induced Cross-linking of Unmodified Proteins (PICUP) Assay. […] Different compounds were added to the protein solution at a final concentration of 50 μM, resulting in a molar ratio of 1:1. PICUP assays were performed with the following controls: samples without light exposition, without Ru(bpy) or ammonium persulfate, and without compound (i.e., 0.125% DMSO). […]

α-synuclein (α-syn) [2] = molecular target: T1, α-synuclein (α-syn); assay: Thioflavin T (ThT) fluorescence assay of α-syn fibril formation; type: biochemical; conditions: compounds at 100 μM; for maximum thioflavin T (ThT) intensity in percentage: α-syn 6 μM final concentration, average of three replicates; for % ThT intensity (100 μM), maximum ThT intensity in percentage / remaining activity at 100 µM: α-syn 2 μM final concentration, average of three replicates with SEM; for remaining activity at 100 µM: read-out: % ThT intensity (100 μM), maximum ThT intensity in percentage
Description: Chemical and peptide source. Dimethylsulfoxide (DMSO) and thioflavin-T (ThT) were purchased from Alfa Aesar (Ward Hill, MA). Recombinant α-synuclein (α-syn) was procured from rPeptide (WatKinsville, GA). The recombinant p-tau isoform 1N4R was prepared as published previously (Fortin et al. 2021, Sui et al. 2015, Liu et al. 2020). Concerning the preparation of tau 0N4R, a bacterial expression plasmid consisting of the vector pET30a carrying a cDNA encoding the human Tau 0N4R isoform was a kind gift of Dr. Benjamin Wolozin (Boston University). E. coli stock (Rosetta BL21 E. coli (CamR) containing pET30a [0N4R tau wt] (KanR)) was grown in LB medium supplemented with kanamycin (50 μg/mL) and chloramphenicol (50 μg/mL). Protein over-expression was induced by the addition of 1 mM IPTG for ˜18 hours at 37° C., and cells were pelleted by centrifugation at 6,000 g for 15 minutes at 4° C. The cells were resuspended in lysis buffer (10 mM Hepes, pH 7.4, 50 mM NaCl, 1 mM MgCl2, 1 mM PMSF, 1× PIC, and 0.5 mM DTT) and lysed by sonication at 30 seconds “On” and 1 minute “Off” at ˜30-45% power for ˜3-5 minutes. Lysate was centrifuged at 10,000 rpm for 10 minutes at 4° C., and supernatant was transferred with 7.8 ml (total) of 3M NaCl. The lysate was incubated for 10 minutes in 80° C. water bath, then cooled for 10 minutes in an ice bath. The lysate was centrifuged at 10,000 rpm at 4° C. for 10 minutes, and the supernatant was transferred to a new tube. The supernatant was dialyzed overnight against cation exchange buffer (50 mM MES, […], 1 mM DTT, pH 6.0). The dialysate was loaded onto a HiPrep SP HP column, and proteins were eluted with a linear gradient ranging from 50 mM to 1 M NaCl. General Characterizations. ^1H and ^13C {1H} NMR spectra were recorded using a 500 MHz Bruker instrument working at a frequency of 500 MHz for ^1H and at 126 MHz for ^13C. Chemical shifts are reported in ppm using residual solvent resonances as internal reference (δ 2.50 and δ 39.51 for ^1H and ^13C in DMSO-d6, respectively). ^1H NMR data are reported as follows. b=broad, s=singlet, d=doublet, t=triplet, q=quartet, and m=multiplet. Coupling constants are given in hertz. The purity of all compounds and synthetic intermediates was judged to be 95% or better based on ^1H NMR. IR measurements were performed in a Nicolet FTIR as thin films in the Purdue Drug Discovery facility. High-resolution mass spectrometry analyses were conducted at the MSU Mass Spectrometry facility. Thioflavin fluorescence assays. […] The recombinant α-syn obtained from rPeptide has been validated with proper quality control to confirm the monomeric state of the protein. Kinetics of fibril formation have been performed using ThT as published previously.^6, 12, 13, 24 The fluorescence emission experiments were performed with the excitation and emission wavelengths set at 440 and 485 nm, respectively, with a Synergy HT multi-mode microplate reader (BioTek, Winooski, VT). Samples were measured in three replicates. Experiments were repeated three times using different α-syn stock solutions. For each time point, arbitrary units of fluorescence were calculated from the mean values normalized against the maximum value. The percentage of fluorescence intensity at the plateau phase in Table 1 was expressed as mean #SEM. Concerning the dose response curve depicted in FIG. 2, the data were plotted using GraphPad Prism. Photo-induced Cross-linking of Unmodified Proteins (PICUP) Assay. To induce oligomerization by cross-linking, α-syn (from Rpeptide, LLC) was diluted in 10 mM phosphate buffer (pH 7.4) to reach a final concentration of 50 μM. Different compounds were added to the protein solution at a final concentration of 50 μM, resulting in a molar ratio of 1:1. PICUP assays were performed with the following controls: samples without light exposition, without Ru(bpy) or ammonium persulfate, and without compound (i.e., 0.125% DMSO). […]

## Nc1ccc2[nH]ccc2c1 [5-aminoindole, reference compound]
α-synuclein (α-syn) [1]
  effect on α-syn oligomer formation (high molecular weight bands) by PICUP: abrogated the formation of high molecular weight bands

## O=C(Nc1cccc(NC(=O)Nc2cccc3[nH]ccc23)c1)Nc1cccc2[nH]ccc12 [Compound 15, 3-(1H-indol-4-yl)-1-(3-{[(1H-indol-4-yl)carbamoyl]amino}phenyl)urea]
α-synuclein (α-syn) [2]
  maximum thioflavin T (ThT) intensity in percentage: Compound 15 28.1 ± 2.1%

## Cc1c(NC(=O)Nc2ccc3[nH]ccc3c2)cccc1NC(=O)Nc1ccc2[nH]ccc2c1 [Compound 17, 3-(1H-indol-5-yl)-1-(3-{[(1H-indol-5-yl)carbamoyl]amino}-2-methylphenyl)urea]
α-synuclein (α-syn) [2]
  maximum thioflavin T (ThT) intensity in percentage: Compound 17 116.4 ± 8.8%

## 1,1′-(1,4-phenylene)bis(3-(pyridin-4-yl)urea) [Compound 19]
α-synuclein (α-syn) [2]
  % ThT intensity (100 μM), maximum ThT intensity in percentage: 19 41.6 ± 3.6%

## O=C(Nc1ccccc1)Nc1cccc(NC(=O)Nc2ccccc2)c1 [Compound 11, 3-phenyl-1-{3-[(phenylcarbamoyl)amino]phenyl}urea]
α-synuclein (α-syn) [2]
  maximum thioflavin T (ThT) intensity in percentage: Compound 11 108.6 ± 4.7%

## S=C(Nc1ccccc1)Nc1ccc(NC(=S)Nc2ccccc2)cc1 [Compound 10, 1-phenyl-3-{4-[(phenylcarbamothioyl)amino]phenyl}thiourea]
α-synuclein (α-syn) [2]
  remaining activity at 100 µM: 94%

## Cc1c(NC(=O)Nc2ccc(N3CCOCC3)cc2)cccc1NC(=O)Nc1ccc(N2CCOCC2)cc1 [Compound 22, 1,1′-(2-methyl-1,3-phenylene)bis(3-(4-morpholinophenyl)urea)]
α-synuclein (α-syn) [2]
  remaining activity at 100 µM: 93.5%

## Cc1c(NC(=O)Nc2cccc3[nH]ccc23)cccc1NC(=O)Nc1cccc2[nH]ccc12 [Compound 16, 3-(1H-indol-4-yl)-1-(3-{[(1H-indol-4-yl)carbamoyl]amino}-2-methylphenyl)urea]
α-synuclein (α-syn) [2]
  maximum thioflavin T (ThT) intensity in percentage: Compound 16 23.4 ± 0.2%

## O=C(Nc1cccc(NC(=O)Nc2ccc3cc[nH]c3c2)c1)Nc1ccc2cc[nH]c2c1 [Compound 14, 3-(1H-indol-6-yl)-1-(3-{[(1H-indol-6-yl)carbamoyl]amino}phenyl)urea]
α-synuclein (α-syn) [2]
  maximum thioflavin T (ThT) intensity in percentage: Compound 14 12.4 ± 1.8%

## Nc1cccc2[nH]ccc12 [4-aminoindole, reference compound]
α-synuclein (α-syn) [1]
  effect on α-syn oligomer formation (high molecular weight bands) by PICUP: abrogated the formation of high molecular weight bands

## Nc1ccc2cc[nH]c2c1 [6-aminoindole, reference compound]
α-synuclein (α-syn) [1]
  effect on α-syn oligomer formation (high molecular weight bands) by PICUP: abrogated the formation of high molecular weight bands

## O=C(Nc1cccc(NC(=O)Nc2cccc3[nH]ccc23)c1)Nc1cccc2[nH]ccc12 [Compound 12, 3-(1H-indol-4-yl)-1-(3-{[(1H-indol-4-yl)carbamoyl]amino}phenyl)urea]
α-synuclein (α-syn) [2]
  maximum thioflavin T (ThT) intensity in percentage: Compound 12 8.8 ± 0.2%

## Cc1c(NC(=O)Nc2ccc3cc[nH]c3c2)cccc1NC(=O)Nc1ccc2cc[nH]c2c1 [Compound 18, 3-(1H-indol-6-yl)-1-(3-{[(1H-indol-6-yl)carbamoyl]amino}-2-methylphenyl)urea]
α-synuclein (α-syn) [2]
  maximum thioflavin T (ThT) intensity in percentage: Compound 18 49.7 ± 5.0%

## O=C(Nc1cccc(NC(=O)Nc2ccc3[nH]ccc3c2)c1)Nc1ccc2[nH]ccc2c1 [Compound 13, 3-(1H-indol-5-yl)-1-(3-{[(1H-indol-5-yl)carbamoyl]amino}phenyl)urea]
α-synuclein (α-syn) [2]
  maximum thioflavin T (ThT) intensity in percentage: Compound 13 27.7 ± 2.9%

## 1,1′-(1,4-phenylene)bis(3-cyclohexylthiourea) [Compound 20]
α-synuclein (α-syn) [2]
  % ThT intensity (100 μM), maximum ThT intensity in percentage: 20 85% ± <15

## O=C(Nc1ccccc1)Nc1ccc(NC(=O)Nc2ccccc2)cc1 [Compound 9, 1-phenyl-3-{4-[(phenylcarbamoyl)amino]phenyl}urea]
α-synuclein (α-syn) [2]
  remaining activity at 100 µM: 93.5%

## O=C(Nc1cccc2[nH]ccc12)N[C@H]1CC[C@H](NC(=O)Nc2cccc3[nH]ccc23)CC1 [Compound 21, 1,1′-((1R,4R)-cyclohexane-1,4-diyl)bis(3-(1H-indol-4-yl)urea)]
α-synuclein (α-syn) [2]
  remaining activity at 100 µM: 91.6%
